Results on 18 compounds are retold here after ChEMBL document CHEMBL5236544, “Furazans in Medicinal Chemistry” (J Med Chem, 2021).

The target of one data set is c-Myc/c-Max (Homo sapiens, UniProt P01106+P61244). Description: Inhibition of Myc/Max (unknown origin). It counts as protein assay.
A further data set deals with HL-60. Description: Antiproliferative activity against (unknown origin) HL-60 assessed as inhibition of cell proliferation by MTT assay. Format: functional, cell-based. As to conditions: Homo sapiens.
The next data set deals with Daudi. Description: Antiproliferative activity against human Daudi assessed as inhibition of cell proliferation by MTT assay. It counts as functional, cell-based.
In data set [1] the target is T1, Amyloid-beta precursor protein (Homo sapiens, UniProt P05067). Description: Inhibition of amyloid beta 42 in human HEK293 cells. Format: cell-based.
Data set [2] in a line: Inhibition of ROMK (unknown origin). Details: species or system Homo sapiens.
Data set [3] can be described thus: physchem. Particulars: octanol/water.
Description: Lipophilicity, log D of the compound
The next data set relates to HeLa. Description: cells. Particulars: Homo sapiens.
A further data set addresses Histamine H2 receptor (Homo sapiens, UniProt P25021). Description: Antagonist activity at histamine H2 receptor (unknown origin) assessed as inhibition constant.
Data set [4] deals with Rattus norvegicus. Description: Antihypertensive activity in spontaneously hypertensive rat model assessed as change in blood pressure at 1 mg/kg, po measured after 10 hrs. Format: functional.
Data set [5] concerns Rattus norvegicus. Kind of data set: Antihypertensive activity in spontaneously hypertensive rat model assessed as change in heart rate at 1 mmol/Kg, po measured after 10 hrs. Format: functional.
Data set [6] concerns Rattus norvegicus. Kind of data set: Antihypertensive activity in spontaneously hypertensive rat model assessed as change in heart rate at 1 umol/kg, po measured after 3 hrs. It counts as functional.
The test system of data set [7] is Rattus norvegicus. Kind of data set: Antihypertensive activity in spontaneously hypertensive rat model assessed as change in blood pressure at 1 mg/kg, po measured after 3 hrs. It counts as functional.
Data set [8] deals with Rattus norvegicus. Kind of data set: Antihypertensive activity in spontaneously hypertensive rat model assessed as change in heart rate at 10 mg/Kg, po measured after 6 hrs. It counts as functional.
The subject of a further data set is MDR1. Kind of data set: Efflux ratio of permeability in dog MDCK-MDR1 cells. It counts as ADME, cell-based, Canis lupus familiaris.
The subject of a further data set is HEL. Kind of data set: Antiproliferative activity against human HEL cells assessed as reduction in cell viability measured after 48 hrs by MTT assay. It counts as functional, cell-based.
Data set [9] in a line: Half life in mouse. It counts as ADME, organism-based. Particulars: in vivo.
In another data set the test system is Jurkat. Kind of data set: Antiproliferative activity against human Jurkat cells assessed as reduction in cell viability measured after 48 hrs by MTT assay. It counts as functional, cell-based.
The next data set concerns K562. Description: Antiproliferative activity against human K562 cells assessed as reduction in cell viability measured after 48 hrs by MTT assay. Format: functional, cell-based. Particulars: K562, 48 h.
Data set [10] has as its target Ribosomal protein S6 kinase alpha-1 (Homo sapiens, UniProt Q15418). Description: Inhibition of RSK1 (unknown origin).
A short description of data set [11]: Inhibition of p70S6K (unknown origin). Details: species or system Homo sapiens.
Data set [12] in a line: Inhibition of GSK3 (unknown origin). Also noted: species or system Homo sapiens.
A short description of data set [13]: Inhibition of HIF (unknown origin). Also noted: species or system Homo sapiens.
A short description of data set [14]: physchem. Particulars: octanol/water. This is another data set of the same source.
Description: Lipophilicity, log P of the compound
Data set [15] in a line: Binding affinity to human wild type HIF2alpha assessed as dissociation constant by calorimetry assay.
In the next data set the test system is HCT-116. Description: Antiproliferative activity against human HCT-116 cells assessed as reduction in cell viability by MTT assay. It counts as functional, cell-based.
The target in data set [16] is T1, Amyloid-beta precursor protein. Description: Inhibition of amyloid beta (unknown origin) aggregation at 10 uM relative to control.
In a further data set the target is Caspase-8 (Homo sapiens, UniProt Q14790). Description: Inhibition of caspase-8 (unknown origin).
The target in the next data set is Caspase-7 (Homo sapiens, UniProt P55210). Kind of data set: Inhibition of caspase-7 (unknown origin).
Data set [17] can be described thus: Drug concentration in ipsilateral striatum of malonate induced huntington disease rat measured after 24 hrs by LC/MS-MS analysis. It counts as ADME, tissue-based. Particulars: read-out: Ct.
The next data set concerns NT2. Kind of data set: Inhibition of camptothecin induced apoptosis in human NT2 cells incubated for 5 hrs in presence of camptothecin by ELISA method. Format: functional, cell-based. As to conditions: NT2, 5 h.
Data set [18] can be described thus: Half life in Malonate induced Huntington disease rat. It counts as ADME. Particulars: in vivo.
A short description of data set [19]: Drug concentration in ipsilateral striatum of malonate induced huntington disease rat measured after 6 hrs by LC/MS-MS analysis. Format: ADME, tissue-based. As to conditions: read-out: Ct.
Data set [20] is described as follows: Cmax in Malonate induced Huntington disease […] model at 1.5 nmol administered intra striatal measured for 1 hr by LC/MS-MS analysis. As to conditions: in vivo. Format: ADME. Also noted: time 1 hrs, dose 1.5 nmol.
In the next data set the target is Caspase-1 (Homo sapiens, UniProt P29466). Kind of data set: Inhibition of caspase-1 (unknown origin).
A further data set addresses Caspase-3 (Homo sapiens, UniProt P42574). Kind of data set: Inhibition of caspase-3 (unknown origin).

Each structure is given as a SMILES string. A value given as a limit tells only on which side of the number the result lay.

T1 sequence (P05067 whole entry): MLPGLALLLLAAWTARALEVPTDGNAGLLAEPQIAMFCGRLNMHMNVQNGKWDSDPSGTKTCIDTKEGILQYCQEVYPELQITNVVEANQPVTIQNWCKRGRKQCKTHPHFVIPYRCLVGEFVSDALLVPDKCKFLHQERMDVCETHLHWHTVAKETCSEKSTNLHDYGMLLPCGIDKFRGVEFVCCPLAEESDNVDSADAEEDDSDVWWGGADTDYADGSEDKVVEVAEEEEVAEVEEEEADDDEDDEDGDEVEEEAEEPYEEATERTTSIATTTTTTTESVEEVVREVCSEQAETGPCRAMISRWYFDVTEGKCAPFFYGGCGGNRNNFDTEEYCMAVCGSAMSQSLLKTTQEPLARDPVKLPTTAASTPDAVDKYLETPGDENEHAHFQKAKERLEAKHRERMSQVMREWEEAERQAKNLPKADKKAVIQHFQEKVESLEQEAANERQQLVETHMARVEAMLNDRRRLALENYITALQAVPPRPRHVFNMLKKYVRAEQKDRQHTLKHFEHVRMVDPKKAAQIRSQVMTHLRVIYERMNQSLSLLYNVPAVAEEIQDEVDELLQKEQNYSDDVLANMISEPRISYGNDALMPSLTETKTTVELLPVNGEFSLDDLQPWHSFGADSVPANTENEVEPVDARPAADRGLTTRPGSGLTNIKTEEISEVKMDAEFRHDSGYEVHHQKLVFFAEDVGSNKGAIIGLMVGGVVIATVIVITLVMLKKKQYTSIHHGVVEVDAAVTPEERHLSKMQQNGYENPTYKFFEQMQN
Sequence of c-Myc/c-Max (P01106 whole entry): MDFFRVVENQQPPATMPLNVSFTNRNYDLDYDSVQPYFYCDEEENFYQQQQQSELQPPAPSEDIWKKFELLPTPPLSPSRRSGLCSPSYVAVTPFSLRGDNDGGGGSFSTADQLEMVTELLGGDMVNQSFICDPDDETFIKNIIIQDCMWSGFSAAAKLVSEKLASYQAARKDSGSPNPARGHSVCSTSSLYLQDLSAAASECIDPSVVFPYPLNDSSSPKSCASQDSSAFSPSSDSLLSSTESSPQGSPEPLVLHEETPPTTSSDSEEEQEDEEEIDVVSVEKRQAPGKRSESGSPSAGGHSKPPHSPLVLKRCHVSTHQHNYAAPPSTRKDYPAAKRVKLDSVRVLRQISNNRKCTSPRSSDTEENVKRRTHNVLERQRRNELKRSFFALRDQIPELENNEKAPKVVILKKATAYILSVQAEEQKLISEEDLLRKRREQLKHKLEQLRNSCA
Sequence of c-Myc/c-Max (P61244 whole entry): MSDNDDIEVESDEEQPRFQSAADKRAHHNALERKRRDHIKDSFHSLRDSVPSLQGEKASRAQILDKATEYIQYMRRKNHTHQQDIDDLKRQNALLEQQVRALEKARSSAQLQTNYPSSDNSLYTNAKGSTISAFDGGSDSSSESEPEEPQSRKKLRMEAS
Sequence of Histamine H2 receptor (P25021 whole entry): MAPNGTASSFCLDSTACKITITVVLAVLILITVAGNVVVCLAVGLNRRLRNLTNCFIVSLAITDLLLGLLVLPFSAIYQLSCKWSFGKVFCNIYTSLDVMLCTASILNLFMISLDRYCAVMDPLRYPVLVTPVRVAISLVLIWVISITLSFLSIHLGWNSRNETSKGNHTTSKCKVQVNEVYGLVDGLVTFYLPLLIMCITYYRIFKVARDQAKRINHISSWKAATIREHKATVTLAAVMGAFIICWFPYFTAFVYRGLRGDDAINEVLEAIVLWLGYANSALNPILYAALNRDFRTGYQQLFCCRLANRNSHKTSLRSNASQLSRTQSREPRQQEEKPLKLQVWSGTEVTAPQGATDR
Sequence of Caspase-1 (P29466 120-297 limits assumed): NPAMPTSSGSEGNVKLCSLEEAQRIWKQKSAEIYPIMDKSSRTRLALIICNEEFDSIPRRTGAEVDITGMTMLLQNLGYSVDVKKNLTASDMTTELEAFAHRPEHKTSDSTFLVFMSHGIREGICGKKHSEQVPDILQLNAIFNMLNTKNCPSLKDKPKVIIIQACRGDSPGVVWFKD
Sequence of Caspase-1 (P29466 317-404 limits assumed): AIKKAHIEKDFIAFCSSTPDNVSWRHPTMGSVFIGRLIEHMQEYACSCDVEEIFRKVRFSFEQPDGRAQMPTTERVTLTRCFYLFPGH
Sequence of Caspase-3 (P42574 29-175 limits assumed): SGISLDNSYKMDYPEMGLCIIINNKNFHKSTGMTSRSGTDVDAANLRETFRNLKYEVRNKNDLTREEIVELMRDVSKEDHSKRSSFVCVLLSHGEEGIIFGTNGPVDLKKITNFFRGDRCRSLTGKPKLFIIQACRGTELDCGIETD
Sequence of Caspase-3 (P42574 176-277 limits assumed): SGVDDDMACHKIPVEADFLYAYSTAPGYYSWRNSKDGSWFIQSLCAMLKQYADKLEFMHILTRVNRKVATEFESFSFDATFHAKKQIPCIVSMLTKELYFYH
Sequence of Caspase-7 (P55210 24-198 limits assumed): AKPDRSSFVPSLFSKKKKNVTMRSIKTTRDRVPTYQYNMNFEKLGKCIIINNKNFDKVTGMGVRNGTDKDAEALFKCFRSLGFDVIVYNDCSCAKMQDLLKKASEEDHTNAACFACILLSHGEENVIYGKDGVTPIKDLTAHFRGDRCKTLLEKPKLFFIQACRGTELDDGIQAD
Sequence of Caspase-7 (P55210 207-303 limits assumed): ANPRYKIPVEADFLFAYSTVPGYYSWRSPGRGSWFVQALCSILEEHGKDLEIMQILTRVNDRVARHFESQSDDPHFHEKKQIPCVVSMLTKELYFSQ
Sequence of Ribosomal protein S6 kinase alpha-1 (Q15418 whole entry): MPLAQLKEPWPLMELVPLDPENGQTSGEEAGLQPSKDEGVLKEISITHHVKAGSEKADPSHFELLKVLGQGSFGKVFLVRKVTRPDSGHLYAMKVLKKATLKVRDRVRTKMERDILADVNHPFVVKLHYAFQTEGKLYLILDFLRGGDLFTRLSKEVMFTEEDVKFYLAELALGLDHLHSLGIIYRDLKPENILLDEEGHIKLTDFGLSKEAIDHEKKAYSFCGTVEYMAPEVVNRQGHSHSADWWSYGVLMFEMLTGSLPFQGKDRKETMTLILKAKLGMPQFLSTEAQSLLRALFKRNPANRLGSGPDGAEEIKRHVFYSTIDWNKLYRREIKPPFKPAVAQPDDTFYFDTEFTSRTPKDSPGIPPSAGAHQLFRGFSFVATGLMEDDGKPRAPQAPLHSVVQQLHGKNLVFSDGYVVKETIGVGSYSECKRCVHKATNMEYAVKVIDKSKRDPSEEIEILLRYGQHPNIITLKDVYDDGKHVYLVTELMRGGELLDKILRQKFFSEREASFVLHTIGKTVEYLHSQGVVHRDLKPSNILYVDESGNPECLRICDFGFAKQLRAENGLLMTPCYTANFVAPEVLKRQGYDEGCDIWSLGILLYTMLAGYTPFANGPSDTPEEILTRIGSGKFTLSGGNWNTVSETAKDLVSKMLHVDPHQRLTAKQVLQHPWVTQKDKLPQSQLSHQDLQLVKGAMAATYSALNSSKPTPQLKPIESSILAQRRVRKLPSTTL
Sequence of Caspase-8 (Q14790 217-374 limits assumed): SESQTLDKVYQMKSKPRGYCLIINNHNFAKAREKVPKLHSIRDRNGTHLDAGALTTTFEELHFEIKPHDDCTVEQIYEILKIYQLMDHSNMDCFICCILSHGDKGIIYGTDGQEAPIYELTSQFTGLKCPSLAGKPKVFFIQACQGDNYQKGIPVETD
Sequence of Caspase-8 (Q14790 385-479 limits assumed): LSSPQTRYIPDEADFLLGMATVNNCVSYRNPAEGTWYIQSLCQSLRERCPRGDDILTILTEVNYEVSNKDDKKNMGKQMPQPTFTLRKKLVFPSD
Description for HeLa: Antiproliferative activity against human HeLa cells assessed as reduction in cell viability

On c-Myc/c-Max, `O=C(O)c1ccc(-c2ccccc2Nc2ccc([N+](=O)[O-])c3nonc23)cc1` had an IC50 of 33000 nM. The concentration giving a half-maximal response (EC50) in the data set with HL-60 was determined as 148000 nM; with Daudi it was 56000 nM.

Take `CC(C)CC(C(=O)O)c1cc(Cl)c(OCC2CC2)c(-c2ccc3nonc3c2)c1` (stereo unspecified): the concentration giving a half-maximal response (EC50) in data set [1] came to 270 nM.

In [2], `O=C1OCc2cc(CCN3CCN(CCc4ccc5nonc5c4)CC3)ccc21` gave an IC50 of 2200 nM.

On to `O=[N+]([O-])c1ccccc1` [NITROBENZENE], for which the logD in “physchem [3]” is 1.6.

Compound `Nc1nonc1/C(=N/O)NCc1ccccc1` returned an EC50 in the data set on HeLa of 1000 nM.

Regarding `CN(C)Cc1ccc(CSCCNc2nonc2NCCCc2ccccc2)o1`, the Ki at Histamine H2 receptor worked out at 2 nM.

For `CCn1c(-c2nonc2N)nc2cnc(Oc3cccc(NC(=O)c4ccc(OCCN5CCOCC5)cc4)c3)cc21` [GSK-269962A], the Activity with Rattus norvegicus [4] was 0 mmHg; in the data set on Rattus norvegicus [5] it was 0 bpm; in the data set with Rattus norvegicus [6] it was 30 bpm; with Rattus norvegicus [7], -20 mmHg; in the data set with Rattus norvegicus [8], 10 bpm.

`COc1cc2c(cc1OC)CN(Cc1ccc(-c3ccc(O)cc3)cc1)CC2`: the efflux ratio with MDR1 stood at 0.69.

`O=C(Oc1ccccc1)c1ccccc1Nc1ccc([N+](=O)[O-])c2nonc12`: on c-Myc/c-Max, the IC50 amounted to 40000 nM. For the same compound, the EC50 was determined as 9600 nM with HL-60 and 3100 nM in the data set with Daudi.

As to `CC1(C)CC[C@]2(C(=O)O)CC[C@]3(C)C(=CC[C@@H]4[C@@]5(C)Cc6nonc6C(C)(C)[C@@H]5CC[C@]43C)[C@@H]2C1`, the EC50 in the data set on HEL was over 210 nM; in the data set on Jurkat, 290 nM; with K562, 780 nM. The compound further had a half-life in data set [9] of 1.5 h.

Turning to `CCn1c(-c2nonc2N)nc2cncc(CNC3CCNCC3)c21`, the 50% inhibitory concentration (IC50) in [10] turned out to be 155 nM; in [11], 270 nM; in data set [12] it was 1900 nM.

Take `CCCOc1cccc2c1CCCC2CCCN1CCc2cc(OC)c(OC)cc2C1` (stereo unspecified): in the data set with MDR1, the efflux ratio worked out at 0.35.

In [13], `O=[N+]([O-])c1c(Nc2cc(F)cc(Cl)c2)ccc2nonc12` showed an IC50 of 100 nM. Also, in “physchem [14]”, the logP is 3.99. Besides, the Kd in [15] was 80 nM.

Regarding `O=C(Nc1ccc(C(F)(F)F)cc1)Nc1nonc1-c1ccc(Cl)cc1`, in the data set with HCT-116, the EC50 was found to be 2500 nM.

`CC(O)c1cccc(-c2cc(NCc3ccccc3)c3nonc3c2)c1` (stereo unspecified): the inhibition in [16] worked out at 66.3%.

Turning to `CC(C)CC(C(=O)O)c1cc(Cl)c(OCC2CC2)c(-c2ccc(C(F)(F)F)cc2)c1` (stereo unspecified), the EC50 in data set [1] amounted to 70 nM.

For the compound `CCCCCCN(C)CC(=O)C(CC(=O)O)NC(=O)[C@H](CC)n1cc(C(C)(C)C)nc(NCc2nonc2C)c1=O` (stereo partly specified), the IC50 on Caspase-8 was 6480 nM; against Caspase-7, 42 nM; against Caspase-1, 67 nM; against Caspase-3, 6 nM. Besides, the concentration at 24 h in data set [17] turned out to be 0.1 µM. In addition, the EC50 with NT2 is 21 nM. In addition, in data set [18], the half-life is 3 h. Besides, the concentration at 6 h in data set [19] amounted to 5.1 µM. This compound also yielded a Cmax in data set [20] of 32.2 µM.

With `CN(C)Cc1ccc(CSCCNc2nonc2N)o1`, the Ki at Histamine H2 receptor came to 26 nM.
